Some results are limits rather than exact numbers.

What is called IC50 is the concentration that inhibits the measured activity by half. One may read the Ki as a measure of affinity in units of concentration, obtained from inhibition or displacement. Higher therefore signals lower affinity. By Kd is commonly meant the free concentration of one partner at which half of the binding sites on the other are occupied at equilibrium, for simple one-to-one binding. A higher Kd goes with lower affinity. As usually defined, the GI50 is the concentration giving 50% growth inhibition. Lower therefore signals greater sensitivity of the cells. Broadly, the koff is the first-order rate constant of dissociation. Lower therefore signals slow dissociation. For orientation: inhibition means the change of the read-out against control, counted positive when it falls.

The target of test [1] is T1, [Pyruvate dehydrogenase (acetyl-transferring)] kinase isozyme 1, mitochondrial (Homo sapiens, UniProt Q15118). In words: Inhibition of PDHK1 in human PC3 cells assessed as decrease in phosphorylation of E1alpha subunit at serine 293 residue after 1 hr by ELISA. Format: cell-based. On the technique in general: In an ELISA, binding on a coated surface is turned into a signal by an enzyme label.

The target of test [2] is T1, [Pyruvate dehydrogenase (acetyl-transferring)] kinase isozyme 1, mitochondrial. In words: Inhibition of fluorescein-labelled VER160364 binding to PDHK1 (unknown origin) after 90 mins by fluorescence polarization assay. (In general: Fluorescence polarisation rises when a labelled molecule tumbles more slowly, as on binding a larger partner.)
The target is the same in test [3]. In words: Binding affinity to PDHK1 (unknown origin) by surface plasmon resonance method. For orientation: In SPR one partner is held on a chip, and binding of the other changes the refractive index at the surface.
Test [4] shares this target. In words: Inhibition of PDHK1 (unknown origin) assessed as decrease in phosphorylation of E1alpha subunit at serine 293 residue after 1 hr by DELFIA.
A further test concerns PC-3. In words: Antiproliferative activity against human PC3 cells after 96 hrs by sulphorhodamine B assay. Format: functional. The following applies: PC-3, 96 h.
Test [5] addresses T2, Heat shock protein HSP 90-alpha (Homo sapiens, UniProt P07900). In words: Displacement of fluorescein-labelled VER160364 from HSP90A (unknown origin) after 90 mins by fluorescence polarization assay.
Test [6] is described as follows: Inhibition of PDHK (unknown origin). The arrangement: species or system Homo sapiens.
Test [7] deals with T1, [Pyruvate dehydrogenase (acetyl-transferring)] kinase isozyme 1, mitochondrial. In words: Inhibition of SUMO-tagged PDHK1 (unknown origin) in presence of [gamma-32P]ATP after 30 mins by SDS-PAGE based phosphor imaging method.
Test [8] deals with T2, Heat shock protein HSP 90-alpha. In words: Dissociation rate from HSP90A (unknown origin) by surface plasmon resonance method.
Test [9] addresses T1, [Pyruvate dehydrogenase (acetyl-transferring)] kinase isozyme 1, mitochondrial. In words: Binding affinity to PDHK1 (unknown origin) by isothermal titration calorimetry.
Test [10] deals with [Pyruvate dehydrogenase (acetyl-transferring)] kinase isozyme 2, mitochondrial (Homo sapiens, UniProt Q15119). In words: Inhibition of fluorescein-labelled VER160364 binding to PDHK2 (unknown origin) after 90 mins by fluorescence polarization assay.
The target in test [11] is T3, [Pyruvate dehydrogenase (acetyl-transferring)] kinase isozyme 4, mitochondrial (Homo sapiens, UniProt Q16654). In words: Inhibition of fluorescein-labelled VER160364 binding to PDHK4 (unknown origin) after 90 mins by fluorescence polarization assay.
The target in test [12] is [Pyruvate dehydrogenase (acetyl-transferring)] kinase isozyme 3, mitochondrial (Homo sapiens, UniProt Q15120). In words: Inhibition of fluorescein-labelled VER160364 binding to PDHK3 (unknown origin) after 90 mins by fluorescence polarization assay.
For test [13], the target named is T2, Heat shock protein HSP 90-alpha. In words: Displacement of fluorescein-labelled VER160364 from HSP90A (unknown origin) at 200 uM after 90 mins by fluorescence polarization assay relative to control.
Test [14] concerns the target T3, [Pyruvate dehydrogenase (acetyl-transferring)] kinase isozyme 4, mitochondrial.
Description: Inhibition of PDHK4 (unknown origin) assessed as decrease in phosphorylation of E1alpha subunit at serine 293 residue after 1 hr by DELFIA

T1 sequence (Q15118 whole entry): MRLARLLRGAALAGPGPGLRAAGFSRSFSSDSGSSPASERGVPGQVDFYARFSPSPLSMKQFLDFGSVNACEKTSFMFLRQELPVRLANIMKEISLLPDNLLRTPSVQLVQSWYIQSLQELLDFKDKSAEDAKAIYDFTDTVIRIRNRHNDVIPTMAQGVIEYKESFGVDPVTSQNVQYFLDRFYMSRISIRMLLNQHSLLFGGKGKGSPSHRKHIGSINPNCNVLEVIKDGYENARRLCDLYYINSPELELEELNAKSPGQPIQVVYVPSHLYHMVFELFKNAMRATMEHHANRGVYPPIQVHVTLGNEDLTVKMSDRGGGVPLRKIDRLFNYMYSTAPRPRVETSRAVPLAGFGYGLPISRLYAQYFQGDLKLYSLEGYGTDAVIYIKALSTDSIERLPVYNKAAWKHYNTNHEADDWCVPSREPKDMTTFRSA
T3 sequence (Q16654 whole entry): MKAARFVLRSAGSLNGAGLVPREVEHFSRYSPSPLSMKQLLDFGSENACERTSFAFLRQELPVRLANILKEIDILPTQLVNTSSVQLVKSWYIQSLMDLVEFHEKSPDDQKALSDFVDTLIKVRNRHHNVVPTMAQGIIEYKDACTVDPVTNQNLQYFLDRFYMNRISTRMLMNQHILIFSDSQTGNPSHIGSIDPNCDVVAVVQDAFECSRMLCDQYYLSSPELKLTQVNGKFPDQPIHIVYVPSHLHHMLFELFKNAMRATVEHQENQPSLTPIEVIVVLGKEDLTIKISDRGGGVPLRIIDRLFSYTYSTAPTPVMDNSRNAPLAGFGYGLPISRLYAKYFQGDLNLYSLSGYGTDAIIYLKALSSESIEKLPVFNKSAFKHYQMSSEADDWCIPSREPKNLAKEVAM
[Pyruvate dehydrogenase (acetyl-transferring)] kinase isozyme 3, mitochondrial, sequence (Q15120 whole entry): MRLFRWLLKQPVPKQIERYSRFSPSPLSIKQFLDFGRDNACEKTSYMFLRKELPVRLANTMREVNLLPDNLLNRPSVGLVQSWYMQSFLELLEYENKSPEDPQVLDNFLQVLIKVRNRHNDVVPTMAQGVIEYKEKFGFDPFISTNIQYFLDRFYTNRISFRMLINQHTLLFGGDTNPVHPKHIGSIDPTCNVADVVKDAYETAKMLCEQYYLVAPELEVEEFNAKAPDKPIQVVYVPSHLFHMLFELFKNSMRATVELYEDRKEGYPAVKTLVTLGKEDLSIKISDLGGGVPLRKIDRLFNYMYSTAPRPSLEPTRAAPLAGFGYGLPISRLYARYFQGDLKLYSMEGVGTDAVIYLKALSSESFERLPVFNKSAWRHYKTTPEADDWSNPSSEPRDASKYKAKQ

Regarding `CN(C)C(=O)c1ccc(S(=O)(=O)c2ccc(NC(=O)[C@@](C)(O)C(F)(F)F)c(Cl)c2)cc1`, the IC50 in [1] came to 0.041 µM.

Turning to `C[C@H]1CCc2cc(-c3nc(Cl)nc4[nH]ccc34)ccc2N1C(=O)c1ccc(O)cc1O`, the Ki in test [2] was 0.64 µM; in test [5], > 50 µM. Also, binding in [3] was characterised by a dissociation constant (Kd) of 0.009 µM. The IC50 in test [4] was found to be 0.135 µM; in test [1], 1.82 µM. Besides, it took 15 µM to inhibit growth in the test on PC-3 by half (GI50).

With `C[C@@H]1C[C@H]2O[C@@H]2/C=C\C=C\C(=O)Cc2c(Cl)c(O)cc(O)c2C(=O)O1` [RADICICOL], the figures for the IC50 in test [6] and in test [7] were 1200 µM and 230 µM, respectively.

In the case of `C[C@H]1CCc2cc(F)ccc2N1C(=O)c1ccc(O)cc1O`, the Ki amounted to 0.09 µM in test [2] and 3.48 µM in test [5]. In addition, the koff in [3] is 0.08 s⁻¹; in test [8] it was 0.18 s⁻¹.

Consider `Cc1cc2ccccc2nc1-c1ccc2c(c1)CC[C@H](C)N2C(=O)c1ccc(O)cc1O`, for which the results for the equilibrium dissociation constant (Kd) in [9] and in [3] were 0.153 µM and 0.115 µM, respectively. Further, the inhibition constant Ki came to 0.124 µM in test [2] and 10.6 µM in test [5]. Also, the values for the IC50 in [4] and in [1] were 0.139 µM and 2.68 µM, respectively. Besides, the GI50 in the test with PC-3 came out at 14 µM.

As for `CC1CCc2cc(F)ccc2N1C(=O)c1ccc(O)cc1O` (racemic), the inhibition constant Ki in test [2] was determined as 0.2 µM; in test [5] it was 9.15 µM. Further, the dissociation rate constant (koff) in test [3] stood at 0.08 s⁻¹; in [8] it was 0.23 s⁻¹.

For the molecule `Cc1cnc(Cl)nc1-c1ccc2c(c1)CC[C@H](c1cccnc1)N2C(=O)c1ccc(O)cc1O`, in test [3], binding was put at a Kd of 0.01 µM. The 50% inhibitory concentration (IC50) in [4] turned out to be 0.015 µM; in test [1], 5.77 µM. Also, in test [5], the inhibition constant (Ki) is > 50 µM.

For the molecule `O=C(c1ccc(O)cc1O)N(Cc1ccccc1)c1ccccc1`, the inhibitory constant (Ki) in [2] came to 0.98 µM. In addition, the results for the koff in [3] and in test [8] were 0.26 s⁻¹ and 0.14 s⁻¹, respectively.

Turning to `CCNC(=O)c1noc(-c2cc(Cl)c(O)cc2O)c1-c1ccc(CN2CCOCC2)cc1C`, the Ki was found to be 0.136 µM in test [2] and 0.032 µM in [5]. Moreover, the koff in [3] came to 0.014 s⁻¹; in test [8], 0.001 s⁻¹.

Turning to `Cc1cnc(Cl)nc1-c1ccc(N(Cc2ccccc2)C(=O)c2ccc(O)cc2O)cc1`, the Kd in test [9] was determined as 0.06 µM; in test [3], 0.016 µM. For the same molecule, the Ki came to 0.067 µM in test [2] and 6.55 µM in [5]. For the same molecule, the IC50 was 0.072 µM in test [4] and 1.72 µM in [1]. Moreover, the GI50 with PC-3 is > 40 µM.

For `COc1ccc(N(C)C(=O)c2ccc(O)cc2O)cc1`, the half-maximal inhibitory concentration (IC50) in [10] amounted to 2.23 µM; in test [5], 3.02 µM. Besides, the inhibitory constant (Ki) in test [10] was 1.07 µM; in test [11], 1.27 µM; in test [2], 1.93 µM; in test [12], 0.55 µM; in test [5], 1.38 µM.

In [10], `CCNC(=O)CN(C(=O)c1ccc(O)cc1O)c1ccc(OC)cc1` yielded an IC50 of 4.46 µM and a Ki of 2.17 µM. The molecule also came in with an inhibition in test [13] of 74%.

Consider `Cc1cnc(Cl)nc1-c1ccc(N(Cc2ccc(CN3CCCC3)cc2)C(=O)c2ccc(O)cc2O)cc1`, for which the Ki in [2] was determined as 0.037 µM; in test [5], 3.21 µM. This molecule also displayed a Kd in test [3] of 0.078 µM. Further, the concentration for half-maximal inhibition (IC50) in [4] was 0.101 µM; in test [1], 2.15 µM. In the test with PC-3, this molecule returned a GI50 of 38 µM.

For `COc1ccc(CN(C)C(=O)c2ccc(N(Cc3ccccc3)C(=O)c3ccc(O)cc3O)cc2)cc1`, the inhibition constant (Ki) in [2] is 0.241 µM; in test [5], > 50 µM. This molecule also showed an equilibrium dissociation constant (Kd) in [3] of 0.01 µM. In addition, the IC50 in test [4] is 0.201 µM; in test [1] it was 10.6 µM.

Take `CN(C(=O)c1ccc(O)cc1O)c1ccc(C(=O)N2CC(C(=O)O)Oc3ccccc32)cc1` (configuration not stated): the values for the Ki in test [2] and in [5] were 0.26 µM and 0.184 µM, respectively.

Regarding `C[C@H]1CCc2cc(C(=O)N(C)Cc3ccc4nccnc4c3)ccc2N1C(=O)c1ccc(O)cc1O`, the results for the Ki in test [2] and in test [5] were 0.016 µM and 2.51 µM, respectively. In [3], this molecule registered an equilibrium dissociation constant (Kd) of 0.006 µM. The half-maximal inhibitory concentration (IC50) came out at 0.036 µM in [4] and 3.01 µM in [1]. For the same molecule, the 50% growth inhibitory concentration (GI50) in the test on PC-3 amounted to 30 µM.

In [10], `CN(C)C(=O)c1ccc(N(C)C(=O)c2ccc(O)cc2O)cc1` registered an IC50 of 0.35 µM and an inhibition constant Ki of 0.15 µM. For the same molecule, in test [5], the 50% inhibitory concentration (IC50) was 2.97 µM and the Ki was found to be 1.23 µM.

With `Cc1cnc(Cl)nc1-c1ccc2c(c1)CC[C@H](C)N2C(=O)c1ccc(O)cc1O`, the Kd in [9] was 0.032 µM; in [3] it was 0.019 µM. Further, the Ki in test [2] worked out at 0.037 µM; in test [5] it was 1.98 µM. Further, the IC50 in test [4] stood at 0.063 µM; in [1], 2.74 µM. Further, in the test with PC-3, the concentration for 50% growth inhibition (GI50) is 40 µM.

Turning to `COc1cc2c(cc1OC)C(c1cccnc1)N(C(=O)c1ccc(O)cc1O)CC2` (configuration not stated), the results for the dissociation rate constant (koff) in [3] and in test [8] were 0.019 s⁻¹ and 0.29 s⁻¹, respectively.

In test [10], `CCN(CC)CCN(C(=O)c1ccc(O)cc1O)c1ccc(OC)cc1` registered an IC50 of 2.78 µM and a Ki of 1.33 µM. In test [13], this molecule came in with an inhibition of 79%.

In the test on PC-3, `Cc1cnc(Cl)nc1-c1ccc(N(Cc2ccc(CNC(=O)C(F)F)cc2)C(=O)c2ccc(O)cc2O)cc1` displayed a concentration for 50% growth inhibition (GI50) of 26.2 µM. In test [5], the Ki was > 100 µM.

As to `O=S(=O)(c1ccc(O)cc1O)N1Cc2cc(O)cc(O)c2C1`, the IC50 in test [14] was found to be 0.84 µM; in test [4], 2.1 µM; in test [5], 47 µM.

With `C[C@H]1CCc2cc(-c3nc(Cl)nc4ccsc34)ccc2N1C(=O)c1ccc(O)cc1O`, the results for the inhibition constant (Ki) in test [2] and in [5] were 0.467 µM and 1.78 µM, respectively. Further, in test [3], binding was characterised by a dissociation constant (Kd) of 0.01 µM. The results for the IC50 in test [4] and in test [1] were 0.198 µM and 2.78 µM, respectively.

Consider `C[C@@H]1CN(C(=O)[C@@](C)(O)C(F)(F)F)[C@@H](C)CN1C(=O)c1ccc(C#N)cc1`, for which the half-inhibitory concentration (IC50) in [1] was 0.066 µM.

As for `CN(Cc1ccc2nccnc2c1)C(=O)c1ccc(N(Cc2ccccc2)C(=O)c2ccc(O)cc2O)cc1`, the figures for the Ki in test [2] and in test [5] were 0.026 µM and 1.02 µM, respectively. The molecule also had a Kd in [3] of 0.001 µM. Also, the half-maximal inhibitory concentration (IC50) in test [4] was found to be 0.0627 µM; in test [1] it was 5.65 µM.

In [13], `C[C@@H]1CCc2cc(F)ccc2N1C(=O)c1ccc(O)cc1O` had an inhibition of 62%. In test [2], this molecule yielded an inhibitory constant (Ki) of 1.17 µM. Moreover, the results for the off-rate constant (koff) in test [3] and in [8] were 0.27 s⁻¹ and 0.6 s⁻¹, respectively.
